Results reported in PubChem BioAssay AID330 (DTP/NCI, 2004).
Values joined by “and” are separate entries in the source; they are usually repeats but may differ in a detail not shown here. Equal values may be shown once. Inconclusive results and toxic doses are left out. How the source made its calls: active means survival T/C of 150% or more; inactive means T/C below 125% in these data.

System: P388 leukemia ip, CD2F1 mice, survival T/C
Test: NCI In Vivo Anticancer Drug Screen. Data for tumor model P388 Leukemia (intraperitoneal) in CD2F1 (CDF1) mice
Details: endpoint: median survival time, higher = longer survival
Procedure, shortened: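 Mice carrying the transplanted tumor received test compound or vehicle. Survival was recorded in each group, and the value is the treated-group measurement divided by that of the vehicle-treated control group.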

[1] = dose: 12.5 mg/kg/injection, schedule: Q01DX009 (ip), vehicle: saline with Tween-80
[2] = dose: 25.0 mg/kg/injection, schedule: Q01DX009 (ip), vehicle: saline with Tween-80
[3] = dose: 50.0 mg/kg/injection, schedule: Q01DX009 (ip), vehicle: saline with Tween-80
[4] = dose: 100.0 mg/kg/injection, schedule: Q01DX009 (ip), vehicle: saline with Tween-80
[5] = dose: 200.0 mg/kg/injection, schedule: Q01DX009 (ip), vehicle: saline with Tween-80
[6] = dose: 6.25 mg/kg/injection, schedule: Q01DX005 (ip), vehicle: saline with Tween-80
[7] = dose: 12.5 mg/kg/injection, schedule: Q01DX005 (ip), vehicle: saline with Tween-80
[8] = dose: 50.0 mg/kg/injection, schedule: Q01DX005 (ip), vehicle: Klucel (hydroxypropylcellulose) (HPC)
[9] = dose: 100.0 mg/kg/injection, schedule: Q04DX003 (ip), vehicle: saline with Tween-80
[10] = dose: 50.0 mg/kg/injection, schedule: Q01DX009 (ip), vehicle: saline
[11] = dose: 100.0 mg/kg/injection, schedule: Q01DX009 (ip), vehicle: saline
[12] = dose: 200.0 mg/kg/injection, schedule: Q01DX009 (ip), vehicle: saline
[13] = dose: 60.0 mg/kg/injection, schedule: Q01DX005 (ip), vehicle: saline with Tween-80
[14] = dose: 120.0 mg/kg/injection, schedule: Q01DX005 (ip), vehicle: saline with Tween-80
[15] = dose: 240.0 mg/kg/injection, schedule: Q01DX005 (ip), vehicle: saline with Tween-80
[16] = dose: 50.0 mg/kg/injection, schedule: Q01DX005 (ip), vehicle: saline with Tween-80
[17] = dose: 100.0 mg/kg/injection, schedule: Q01DX005 (ip), vehicle: saline with Tween-80
[18] = dose: 200.0 mg/kg/injection, schedule: Q01DX005 (ip), vehicle: saline with Tween-80

Measured: T/C

CCCCN(C)C(=S)N/N=C(\C)c1ccccn1
inactive: dose: 6.25 mg/kg/injection, schedule: Q01DX009 (ip), vehicle: saline with Tween-80 98 % of control | [1] 101 % of control | [2] 111 % of control

CC1(C)OC(=O)C(CCc2ccncc2)(CCc2ccncc2)C(=O)O1
inactive: [3] 115 % of control | [4] 104 % of control | [5] 106 % of control

C=C(CN(C)C)C(=O)c1ccc(OC2OC(COC(C)=O)C(OC(C)=O)C(OC(C)=O)C2OC(C)=O)cc1 (stereo not given)
inactive: [6] 106 % of control | [7] 109 % of control

C=C1C(=O)OC2/C=C(\CO)C3OC3C3OC3(C)CC(OC(=O)/C(=C/C)COC(C)=O)C12 (stereo not given)
inactive: dose: 25.0 mg/kg/injection, schedule: Q01DX005 (ip), vehicle: Klucel (hydroxypropylcellulose) (HPC) 98 % of control | [8] 114 % of control

N=C(N)SCc1c2ccccc2cc2ccccc12
inactive: dose: 22.0 mg/kg/injection, schedule: Q01DX009 (ip), vehicle: saline with Tween-80 109 % of control | dose: 33.0 mg/kg/injection, schedule: Q01DX009 (ip), vehicle: saline with Tween-80 109 % of control | [3] 109 % of control | dose: 75.0 mg/kg/injection, schedule: Q01DX009 (ip), vehicle: saline with Tween-80 118 % of control | [9] 118 % of control

CC(/C=C/C1(C)C(C)CCC(=O)C1C)=C\Cc1c(O)c(Cl)c(C)c(C=O)c1O (stereo not given)
inactive: dose: 3.12 mg/kg/injection, schedule: Q01DX009 (ip), vehicle: Klucel (hydroxypropylcellulose) (HPC) 101 % of control and 103 % of control | dose: 6.25 mg/kg/injection, schedule: Q01DX009 (ip), vehicle: Klucel (hydroxypropylcellulose) (HPC) 103 % of control and 106 % of control | dose: 12.5 mg/kg/injection, schedule: Q01DX009 (ip), vehicle: Klucel (hydroxypropylcellulose) (HPC) 106 % of control and 113 % of control

C1=C[N-]c2c3c(ccc2=C1)=CC=C[N-]3.C1=C[N-]c2c3c(ccc2=C1)=CC=C[N-]3.[Cl][Ru][Cl]
inactive: dose: 1.56 mg/kg/injection, schedule: Q01DX005 (ip), vehicle: saline with Tween-80 88 % of control | dose: 3.13 mg/kg/injection, schedule: Q01DX005 (ip), vehicle: saline with Tween-80 111 % of control | [6] 104 % of control

C=CCN1CCN(c2ccncc2S(=O)(=O)N2CCN(C)CC2)CC1
inactive: [10] 105 % of control | [11] 99 % of control | [12] 97 % of control

CC1=C(/C=C/C(C)=C/C=C/C(C)=C/C=C/C=C(C)/C=C/C=C(\C)C=O)C(C)(C)CCC1
inactive: [13] 101 % of control | [14] 92 % of control | [15] 94 % of control

COCC(O)CN1CCN(c2ccccc2C)CC1 (stereo not given)
inactive: dose: 25.0 mg/kg/injection, schedule: Q04DX003 (ip), vehicle: saline with Tween-80 100 % of control | dose: 50.0 mg/kg/injection, schedule: Q04DX003 (ip), vehicle: saline with Tween-80 100 % of control | [9] 90 % of control

CCCCN(CCCC)CCC(O)c1cc(-c2ccc(C(F)(F)F)cc2)nc(-c2ccc(C(F)(F)F)cc2)c1 (stereo not given)
inactive: [3] 111 % of control | [4] 106 % of control | [5] 101 % of control

O=C(Nc1ccc(N=Nc2ccc3cc(S(=O)(=O)O)cc(S(=O)(=O)O)c3c2)cc1)c1ccc(N=Nc2c(O)ccc3cc(S(=O)(=O)O)cc(S(=O)(=O)O)c23)cc1
inactive: dose: 50.0 mg/kg/injection, schedule: Q01DX005 (ip), vehicle: saline 104 % of control | dose: 100.0 mg/kg/injection, schedule: Q01DX005 (ip), vehicle: saline 99 % of control | dose: 200.0 mg/kg/injection, schedule: Q01DX005 (ip), vehicle: saline 98 % of control

COc1nc(NC2OC(CO)C(O)C2O)cc(=O)n1C (stereo not given)
inactive: [13] 93 % of control | [14] 94 % of control

CCOn1nnc2ccccc21
inactive: [3] 92 % of control | [4] 95 % of control | [5] 92 % of control

CC(=O)OC1CCC2(C)C(=O)CCC3C=C(C(=O)C3CSc3ccc(Br)cc3)C(O)CC2C1(C)C (stereo not given)
inactive: dose: 11.25 mg/kg/injection, schedule: Q01DX009 (ip), vehicle: Klucel (hydroxypropylcellulose) (HPC) 95 % of control | dose: 22.5 mg/kg/injection, schedule: Q01DX009 (ip), vehicle: Klucel (hydroxypropylcellulose) (HPC) 100 % of control | dose: 45.0 mg/kg/injection, schedule: Q01DX009 (ip), vehicle: Klucel (hydroxypropylcellulose) (HPC) 94 % of control | dose: 90.0 mg/kg/injection, schedule: Q01DX009 (ip), vehicle: Klucel (hydroxypropylcellulose) (HPC) 100 % of control

COCC1(C)CCCC2(C)C1CCC13CCC(O)CC12O3 (stereo not given)
inactive: dose: 100.0 mg/kg/injection, schedule: Q01DX001 (ip), vehicle: saline 105 % of control | dose: 200.0 mg/kg/injection, schedule: Q01DX001 (ip), vehicle: saline 105 % of control | dose: 400.0 mg/kg/injection, schedule: Q01DX001 (ip), vehicle: saline 103 % of control

CC[N+]1(CC)CCCCC1
inactive: dose: 3.12 mg/kg/injection, schedule: Q01DX009 (ip), vehicle: saline 109 % of control | dose: 6.25 mg/kg/injection, schedule: Q01DX009 (ip), vehicle: saline 109 % of control | dose: 12.5 mg/kg/injection, schedule: Q01DX009 (ip), vehicle: saline 105 % of control

CC(/C=C/c1ccc2c(c1)OCO2)=N\NC(N)=O
inactive: [16] 100 % of control | [17] 97 % of control | [18] 95 % of control

Cc1ccc(-c2nc3n(c2/C=N/NC(N)=S)CCS3)cc1
inactive: dose: 100.0 mg/kg/injection, schedule: Q01DX001 (ip), vehicle: saline with Tween-80 109 % of control | dose: 200.0 mg/kg/injection, schedule: Q01DX001 (ip), vehicle: saline with Tween-80 103 % of control | dose: 400.0 mg/kg/injection, schedule: Q01DX001 (ip), vehicle: saline with Tween-80 97 % of control

O=[N+]([O-])c1ccccc1OCC(O)CCl (stereo not given)
inactive: [3] 102 % of control | [4] 99 % of control

CN1C(c2ccccc2)C2CCCC(C1c1ccccc1)[N+](C)(C)C2 (stereo not given)
inactive: dose: 100.0 mg/kg/injection, schedule: Q04DX003 (ip), vehicle: suspension in saline 104 % of control | dose: 200.0 mg/kg/injection, schedule: Q04DX003 (ip), vehicle: suspension in saline 100 % of control | dose: 400.0 mg/kg/injection, schedule: Q04DX003 (ip), vehicle: suspension in saline 100 % of control

O=[N+]([O-])c1ccc(-n2nnc3ccccc32)nc1
inactive: [10] 108 % of control | [11] 99 % of control | [12] 99 % of control

CCOC(=O)CC(=O)c1ccoc1
inactive: [16] 110 % of control | [17] 105 % of control | [18] 110 % of control

CN(C)c1ccc2c(Cl)cc(=O)[nH]c2c1
inactive: [13] 97 % of control | [14] 97 % of control | [15] 97 % of control

Cc1cccc(C(=O)NN)c1O
inactive: [1] 98 % of control | [2] 104 % of control | [3] 104 % of control | [4] 101 % of control

OCc1c(-c2ccc(Cl)cc2)c(-c2ccc(Cl)cc2)c2n1CCC2
inactive: [8] 92 % of control | dose: 100.0 mg/kg/injection, schedule: Q01DX005 (ip), vehicle: Klucel (hydroxypropylcellulose) (HPC) 92 % of control | dose: 200.0 mg/kg/injection, schedule: Q01DX005 (ip), vehicle: Klucel (hydroxypropylcellulose) (HPC) 92 % of control

CN(C)c1ccc(C(O)C(N)=O)cc1 (stereo not given)
inactive: dose: 6.25 mg/kg/injection, schedule: Q04DX003 (ip), vehicle: saline 100 % of control | dose: 12.5 mg/kg/injection, schedule: Q04DX003 (ip), vehicle: saline 104 % of control | dose: 25.0 mg/kg/injection, schedule: Q04DX003 (ip), vehicle: saline 100 % of control

COC(=O)C1CC(OC(C)=O)C2OC(C)(C)OC2C1OC(C)=O (stereo not given)
inactive: dose: 50.0 mg/kg/injection, schedule: Q01DX009 (ip), vehicle: Klucel (hydroxypropylcellulose) (HPC) 100 % of control | dose: 100.0 mg/kg/injection, schedule: Q01DX009 (ip), vehicle: Klucel (hydroxypropylcellulose) (HPC) 99 % of control | dose: 200.0 mg/kg/injection, schedule: Q01DX009 (ip), vehicle: Klucel (hydroxypropylcellulose) (HPC) 100 % of control

ONc1ccccc1C(F)(F)F
inactive: [10] 97 % of control | [11] 95 % of control

C/C(=N\Nc1nc2ccccc2s1)c1ccccn1
inactive: [7] 98 % of control | dose: 25.0 mg/kg/injection, schedule: Q01DX005 (ip), vehicle: saline with Tween-80 93 % of control | [16] 101 % of control and 91 % of control | [17] 104 % of control
